In US12403132B2, “Methods of treating bone marrow failure syndromes and compositions for use in the same” (The Board of Trustees of the Leland Stanford Junior …, priority 2020, dated 2025):
Where “and” joins values, the source holds several entries; their conditions need not be identical. Identical values can stand only once.

Key:
[1] = test system: Ter119+ erythroblasts; test: Ter119+ erythroblast expansion from murine Lin-Kit+ HSPCs (tet-shRPS19, RPL11+/lox); format: cell-based, mouse
Protocol: FIG. 8. NLK inhibition increases expansion of erythroid progenitors from human and murine models of DBA. Human cord blood CD34+ progenitors were transduced with lentivirus co-expressing GFP with shRNA against luciferase (shLuc), RPS19 (shRPS19) or RPL11 (shRPL11). After 36 hours cells GFP+ cells were differentiated in erythroid media in the presence or absence of 5 μM SD208 for 15 days. Cells were counted and assessed for cell surface expression of CD235. (a) The percentage of CD235+ cells was multiplied by the cell count and values were compared as a percentage of untreated controls. (b) Normalizing values relative to untreated RPS19-insufficiency progenitors facilitates direct comparison of erythropoiesis between untreated and SD208-treated cultures. (c) Approximately 3000 cells were removed from differentiating treatments at day 6 and NLK activity was assessed. Values were normalized to reflect a fold induction relative to untreated controls. (d) Lin-Kit+ hematopoietic progenitors were obtained from three mouse embryos expressing tetracycline-inducible shRNA against RPS19 at day E14.5 or three untreated mice, and thee mature RPL11^+/+ or three mature RPL11^+/lox mice treated with tamoxifen for eight weeks. Cells were grown in the presence or absence of doxycycline and/or SD208 for eight days prior to counting and assessing for ter119 surface expression. Values were expressed as a percentage relative to untreated controls (e) and directly comparing the effect of SD208 on erythropoiesis in ribosomal-insufficiency by expressing values relative to untreated ribosome-insufficient cultures (f). At day 5 approximately 3000 cells were assayed for NLK kinase assay (g). CD34+ HSPCs were isolated from three healthy control and three DBA patient mononuclear bone marrow aspirates by magnetic bead sorting and differentiated in the presence or absence of SD208 for 14 days. After counting the total cell population, the ratio of CD235+ erythroblasts was determined by flow cytometry and number of CD235+ erythroblasts calculated. This was expressed as a percentage of the average number of erythroid cells present in untreated healthy controls. (h) The direct effect of SD208 on erythroid expansion in DBA patient samples was calculated following normalization of untreated DBA patient samples as 1-fold, (i) At day five, 3000 cells from each of the differentiating cultures was analyzed for NLK activity by kinase assay and are expressed as a fold induction relative to untreated healthy controls.
FIG. 11. Metformin improves erythropoiesis in zebrafish model of DBA but not murine models. (Panel A, left portion) Murine fetal liver Kit+ progenitors expressing tetracycline-regulatable shRNA against RPS19 were cultured in the absence (grey columns) or presence (black columns) of doxycycline either alone, or treated with metformin. After 8 days, the number of ter119+ erythroblasts were calculated. (A right) RPL11+/lox mice were left untreated (grey columns) or treated (black columns) with tamoxifen for 5 weeks prior to isolation of bone marrow Lin-Kit+ progenitors. Progenitors were differentiated in the presence or absence of metformin for 8 days before assessing the number of Ter119+ erythroblasts. (Panel B) In conjunction with flow cytometry, cultures were subjected to qRT-PCR for NLK expression and (Panel C) kinase NLK kinase activity was assessed by in vitro kinase assay. […]

[2] = test system: CD11b+ myeloid cells; test: CD11b+ myeloid expansion of differentiating human cord blood CD34+ progenitors; format: cell-based
Protocol: FIG. 7. SD208 increases erythroid expansion in human model of DBA through inhibition of NLK and not TGFβ. (a) Differentiating cord blood CD34+ progenitors were transduced with shRNA against luciferase or RPS19 and treated with inhibitors at working concentrations for TGFβ inhibition every three days. Cells were counted and CD235+ erythroid cells were assessed by flow cytometry after 15 days. (b) Prior to flow cytometry, 5000 cells per group were taken from differentiating cultures for NLK kinase assay. (c) CD34+ progenitors were transduced with shRNA against luciferase or RPS19 and non-targeting or siRNA against NLK. After sorting, samples were split into two groups and either treated with vehicle or SD208 every three days. After 15 days cells were counted and subject to flow cytometry to compare the expansion of maturing CD235+ erythroid (left panel) and CD11b+ myeloid cells (right panel). […] Cells were counted and CD235+ erythroid (D—upper) and CD11b+ myeloid cell (D—lower) percentages were determined by flow cytometry. The number of erythroid or myeloid cells is expressed as a percentage of the number of that lineage with no cytokine or drug treatment.
FIG. 9. […] Cells were counted and the percentage expressing CD235+ erythroid (left) and CD11b+ myeloid (right) was determined by flow cytometry. […] Values are expressed as a fold induction relative to untreated. (Panel C) Transduced and sorted CD34+ progenitors were cultured in methylcellulose in the presence or absence of metformin for 16 days and BFU-E erythroid (left) and CFU-GM myeloid (right) colonies scored. […] To directly compare the effect of metformin in each group, metformin-treated cultures were normalized to untreated cultures and are expressed as a fold induction of the untreated control. […]
Cells were incubated with human Fc receptor binding inhibitor (#14-9161-73; eBioscience) followed by primary antibodies CD235-APC (#306607; BioLegend) and CD11b-PE/Cy5 (#101209; BioLegend). Data were collected on a DxP10 flow cytometer (Cytek) and analyzed by using FlowJo Software, v.9.7.2.

`Fc1ccc(Cl)cc1-c1nc(Nc2ccncc2)c2nccnc2n1` [SD208] was tested, and the “erythropoiesis, % of controls” value ([1]; RPL11+/lox bone marrow HSPCs of three mice, SD208, 8 days, 31.2, 26.4, 18.6% without SD208) was 57.3% and 56.8% and 50.3%, the “fold increase of erythropoiesis in response to SD208” value ([1]; murine RPL11-insufficiency) was 2.29 fold and the “fold increase of erythropoiesis in response to SD208” value ([1]; murine RPS19-insufficiency) was 3.88 fold. The “Ter119+ erythroblasts, % of populations differentiated without doxycycline” value ([1]; tet-shRPS19 fetal liver HSPCs of three mice, doxycycline + SD208, 8 days, 24.3, 20.3, 18.5% without SD208) was 83.2% and 81.1% and 76.6%.

With `CC(C)=CCC[C@](C)(O[C@@H]1O[C@H](CO[C@@H]2O[C@H](CO)[C@@H](O)[C@H](O)[C@H]2O)[C@@H](O)[C@H](O)[C@H]1O)[C@H]1CC[C@]2(C)[C@@H]1[C@H](O)C[C@@H]1[C@@]3(C)CC[C@H](O[C@@H]4O[C@H](CO)[C@@H](O)[C@H](O)[C@H]4O[C@@H]4O[C@H](CO)[C@@H](O)[C@H](O)[C@H]4O)C(C)(C)[C@@H]3CC[C@]12C` [ginsenoside Rb1] the “impact on CD11b+ myeloid expansion” value ([2]; control or RPS19-insufficiency) was “did not impact”.

With `CN(C)C(=N)N=C(N)N` [metformin] the “influence on CD11b+ expansion” value ([2]; 50 mM metformin) was “negligible influence” and the “rescue of Ter119+ erythroblast expansion” value ([1]; murine RPS19- or RPL11-insufficiency, metformin, 8 days) was “did not rescue”.
